Assay results from patent EP4653437A2 (Innovo Therapeutics Inc., priority 2023, dated 2024).

Experiments:
A549 cells = assay: Measurement of PGE2-increasing activity in A549 cells (IL-1β stimulated, PGE2 quantified in supernatant); format: cell-based; details: Homo sapiens, 24 h; concentration of 1 µM of each compound; IL-1β treated A549 cells; read-out: Increased PGE2 production in A549 cells
How it was run: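 A549 cells grown 24 h in F12K with 10% FBS, then switched to serum-free medium with or without IL-1β and compound (0.1% DMSO final). After 24 h at 37 °C, 5% CO2, supernatant PGE2 quantified by immunoassay.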

human 15-PGDH = molecular target: T1, human 15-PGDH (Homo sapiens, UniProt P15428); assay: Evaluation of 15-PGDH inhibitory activity (fluorescence enzyme assay, NAD+/PGE2); format: biochemical; details: human 15-PGDH enzyme, fluorescence Vmax
T1 construct: purchased R&D System 5660-DH
T1 sequence (P15428 1-266): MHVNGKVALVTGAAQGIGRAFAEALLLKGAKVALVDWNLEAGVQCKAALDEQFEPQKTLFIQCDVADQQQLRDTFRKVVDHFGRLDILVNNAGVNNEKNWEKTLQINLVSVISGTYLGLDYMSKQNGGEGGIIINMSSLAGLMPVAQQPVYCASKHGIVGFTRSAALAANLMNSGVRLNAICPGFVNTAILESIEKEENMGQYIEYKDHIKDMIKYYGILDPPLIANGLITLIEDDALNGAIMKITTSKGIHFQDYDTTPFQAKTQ
Procedure: 15-PGDH inhibition activity of Example compounds was measured as follows. 6.7 ng of human 15-PGDH (R&D System# 5660-DH) enzyme (10 µL) was added to a black 96 well plate, 60 µL of buffer (50 mM Tris-HCl, pH 7.5, 0.01% Tween 20) was added, and 10 µL of 200 µM β-Nicotinamide adenine dinucleotide sodium salt (Sigma, Cat# N0632-5G) was added. 10 µL of (10x) compound solution in DMSO was added and reacted for 10 minutes at room temperature.

SMILES | fold induction at 1 µM (A549 cells) | IC50 (human 15-PGDH)
Cc1nc(-c2cc(F)cc(-c3cccc4c(C(=O)N5CCCCC5)cnn34)c2)no1 [Example 322, (7-(3-fluoro-5-(5-methyl-1,2,4-oxadiazol-3-yl)phenyl)pyrazolo[1,5-a]pyridin-3-yl)(piperidin-1-yl)methanone] | > 1.5 | ≤ 100 nM
CC(C)N1CCN(C(=O)c2cncc(-c3cccc4c(C(=O)N5CCCCC5)cnn34)c2)CC1 [Example 50, (4-isopropylpiperazin-1-yl)(5-(3-(piperidine-1-carbonyl)pyrazolo[1,5-a]pyridin-7-yl)pyridin-3-yl)methanone] | > 1.5 | ≤ 100 nM
O=C(c1cccc(-c2cccc3c(C(=O)N4CCCCC4)cnn23)c1)N1CCNCC1 [Example 34, piperazin-1-yl(3-(3-(piperidine-1-carbonyl)pyrazolo[1,5-a]pyridin-7-yl)phenyl)methanone] | > 1.5 | ≤ 100 nM
CN1CCc2ncc(-c3cccc4c(C(=O)N5CCCCC5)cnn34)cc2C1=O [Example 199, 6-methyl-3-(3-(piperidine-1-carbonyl)pyrazolo[1,5-a]pyridin-7-yl)-7,8-dihydro-1,6-naphthyridin-5(6H)-one] | > 1.5 | ≤ 100 nM
Nc1nc(-c2ccc(-c3cccc4c(C(=O)N5CCCCC5)cnn34)cc2)no1 [Example 359, [7-[4-(5-amino-1,2,4-oxadiazol-3-yl)phenyl]pyrazolo[1,5-a]pyridin-3-yl]-(1-piperidyl)methanone] | > 1.5 | ≤ 100 nM
O=C(c1cnn2c(-c3ccc(N4CC5(CCC5)C4)nc3)cccc12)N1CCCCC1 [Example 220, (7-(6-(2-azaspiro[3.3]heptan-2-yl)pyridin-3-yl)pyrazolo[1,5-a]pyridin-3-yl)(piperidin-1-yl)methanone] | > 1.5 | ≤ 100 nM
O=C(Cc1ccccc1)Nc1cncc(-c2cccc3c(C(=O)N4CCCCC4)cnn23)c1 [Example 389, 2-phenyl-N-(5-(3-(piperidine-1-carbonyl)pyrazolo[1,5-a]pyridin-7-yl)pyridin-3-yl)acetamide] | > 1.5 | ≤ 100 nM
O=C(c1cnn2c(-c3ccc(-c4noc(=O)[nH]4)nc3)cccc12)N1CCCCC1 [Example 117, 3-(5-(3-(piperidine-1-carbonyl)pyrazolo[1,5-a]pyridin-7-yl)pyridin-2-yl)-1,2,4-oxadiazol-5(4H)-one] | > 1.5 | ≤ 100 nM
Cn1nc(N)c2ccc(-c3cccc4c(C(=O)N5CCCCC5)cnn34)cc21 [Example 310, [7-(3-amino-1-methyl-indazol-6-yl)pyrazolo[1,5-a]pyridin-3-yl]-(1-piperidyl)methanone] | > 1.5 | ≤ 100 nM
CN(C)c1ncc(-c2cccc3c(C(=O)N4CCCCC4)cnn23)cc1C#N [Example 270, 2-(dimethylamino)-5-(3-(piperidine-1-carbonyl)pyrazolo[1,5-a]pyridin-7-yl)nicotinonitrile] | > 1.5 | ≤ 100 nM
O=C(c1cnn2c(-c3ccc(-c4noc(=O)[nH]4)c(F)c3)cccc12)N1CCCCC1 [Example 304, 3-[2-fluoro-4-[3-(piperidine-1-carbonyl)pyrazolo[1,5-a]pyridin-7-yl]phenyl]-4H-1,2,4-oxadiazol-5-one] | > 1.5 | ≤ 100 nM
N#Cc1ccc(-c2cccc3c(C(=O)N4CCC(F)CC4)cnn23)cc1 [Example 156, 4-(3-(4-fluoropiperidine-1-carbonyl)pyrazolo[1,5-a]pyridin-7-yl)benzonitrile] | > 1.5 | ≤ 100 nM
CNC(=O)c1cccc(-c2cccc3c(C(=O)N4CCCCC4)cnn23)c1 [Example 27, N-methyl-3-(3-(piperidine-1-carbonyl)pyrazolo[1,5-a]pyridin-7-yl)benzamide] | < 1.5 | ≤ 100 nM
O=C(c1cnn2c(-c3ccc(O)c(Cl)c3)cccc12)N1CCCCC1 [Example 21] | > 1.5 | ≤ 100 nM
O=C(Nc1cccc(-c2cccc3c(C(=O)N4CCCCC4)cnn23)c1)C1CC1 [Example 94, N-(3-(3-(piperidine-1-carbonyl)pyrazolo[1,5-a]pyridin-7-yl)phenyl)cyclopropanecarboxamide] | > 1.5 | ≤ 100 nM
O=C(Nc1ncc(-c2cccc3c(C(=O)N4CCCCC4)cnn23)cc1Cl)c1cccnc1 [Example 301, N-(3-chloro-5-(3-(piperidine-1-carbonyl)pyrazolo[1,5-a]pyridin-7-yl)pyridin-2-yl)nicotinamide] | > 1.5 | ≤ 100 nM

SMILES | fold induction at 1 µM (A549 cells) | IC50 (human 15-PGDH)
O=C1NCc2ccc(-c3cccc4c(C(=O)N5CCCC(C(F)(F)F)C5)cnn34)cc21 (stereo not shown) [Example 398, 6-(3-(3-(trifluoromethyl)piperidine-1-carbonyl)pyrazolo[1,5-a]pyridin-7-yl)isoindolin-1-one] | > 1.5 | ≤ 100 nM
COC(=O)c1cccc(-c2cccc3c(C(=O)N4CCCCC4)cnn23)c1 [Example 3, methyl 3-(3-(piperidine-1-carbonyl)pyrazolo[1,5-a]pyridin-7-yl)benzoate] | < 1.5 | ≤ 100 nM
O=C(c1cnn2c(-c3cnc(-c4nnco4)c(F)c3)cccc12)N1CCCCC1 [Example 380, [7-[5-fluoro-6-(1,3,4-oxadiazol-2-yl)-3-pyridyl]pyrazolo[1,5-a]pyridin-3-yl]-(1-piperidyl)methanone] | > 1.5 | ≤ 100 nM
CCCCC(=O)c1cnn2c(-c3cnc4ccccc4c3)cccc12 [Example 151, 1-(7-(quinolin-3-yl)pyrazolo[1,5-a]pyridin-3-yl)pentan-1-one] | > 1.5 | ≤ 100 nM
O=C(c1cnn2c(-c3ccc(Br)nc3)cccc12)N1CCCCC1 [Example 313, (7-(6-bromopyridin-3-yl)pyrazolo[1,5-a]pyridin-3-yl)(piperidin-1-yl)methanone] | > 1.5 | ≤ 100 nM
O=C(c1cnn2c(-c3cnc(Cl)c(F)c3)cccc12)N1CCCCC1 [Example 281, (7-(6-chloro-5-fluoropyridin-3-yl)pyrazolo[1,5-a]pyridin-3-yl)(piperidin-1-yl)methanone] | > 1.5 | ≤ 100 nM
O=C(c1cnn2c(-c3ccccc3Cl)cccc12)N1CCCCC1 [Example 264, (7-(2-chlorophenyl)pyrazolo[1,5-a]pyridin-3-yl)(piperidin-1-yl)methanone] | > 1.5 | ≤ 100 nM
O=C1NCc2ccc(-c3cccc4c(C(=O)N5CCC6(CCC6)CC5)cnn34)cc21 [Example 392, 6-(3-(7-azaspiro[3.5]nonane-7-carbonyl)pyrazolo[1,5-a]pyridin-7-yl)isoindolin-1-one] | > 1.5 | ≤ 100 nM
O=C(c1ccc(-c2cccc3c(C(=O)N4CCCCC4)cnn23)cn1)N1CCC1 [Example 77, azetidin-1-yl(5-(3-(piperidine-1-carbonyl)pyrazolo[1,5-a]pyridin-7-yl)pyridin-2-yl)methanone] | > 1.5 | ≤ 100 nM
CN1CC(NC(=O)c2cncc(-c3cccc4c(C(=O)N5CCCCC5)cnn34)c2)C1 [Example 202, N-(1-methylazetidin-3-yl)-5-[3-(piperidine-1-carbonyl)pyrazolo[1,5-a]pyridin-7-yl]pyridine-3-carboxamide] | > 1.5 | ≤ 100 nM
COCCNC(=O)c1ccc(-c2cccc3c(C(=O)N4CCCCC4)cnn23)cc1 [Example 62, N-(2-methoxyethyl)-4-(3-(piperidine-1-carbonyl)pyrazolo[1,5-a]pyridin-7-yl)benzamide] | > 1.5 | ≤ 100 nM
Cc1nc(-c2ccc(-c3cccc4c(C(=O)N5CCCCC5)cnn34)cc2)cn1C [Example 358] | > 1.5 | ≤ 100 nM
O=C(c1cncc(-c2cccc3c(C(=O)N4CCCCC4)cnn23)c1)N1CC2(CC(O)C2)C1 [Example 225, (6-hydroxy-2-azaspiro[3.3]heptan-2-yl)-[5-[3-(piperidine-1-carbonyl)pyrazolo[1,5-a]pyridin-7-yl]-3-pyridyl]methanone] | > 1.5 | ≤ 100 nM
O=C(c1cnn2c(-c3cccc(F)n3)cccc12)N1CCCCC1 [Example 271, (7-(6-fluoropyridin-2-yl)pyrazolo[1,5-a]pyridin-3-yl)(piperidin-1-yl)methanone] | > 1.5 | ≤ 100 nM
O=C(c1cnn2c(-c3cc(F)c(-c4noc(=O)[nH]4)c(F)c3)cccc12)N1CCCCC1 [Example 331, 3-(2,6-difluoro-4-(3-(piperidine-1-carbonyl)pyrazolo[1,5-a]pyridin-7-yl)phenyl)-1,2,4-oxadiazol-5(4H)-one] | > 1.5 | ≤ 100 nM
CN1CCC(C(=O)Nc2ccc(-c3cccc4c(C(=O)N5CCCCC5)cnn34)cc2)CC1 [Example 99, 1-methyl-N-(4-(3-(piperidine-1-carbonyl)pyrazolo[1,5-a]pyridin-7-yl)phenyl)piperidine-4-carboxamide] | < 1.5 | ≤ 100 nM
